The record followed here is patent US9150546B2, “Triazine derivative and pharmaceutical composition comprising the same” (SHIONOGI & CO., LTD., priority 2009, dated 2015).

pIC50: −log10 of the molar value.

Chain of human P2X3 receptor (P56373 whole entry): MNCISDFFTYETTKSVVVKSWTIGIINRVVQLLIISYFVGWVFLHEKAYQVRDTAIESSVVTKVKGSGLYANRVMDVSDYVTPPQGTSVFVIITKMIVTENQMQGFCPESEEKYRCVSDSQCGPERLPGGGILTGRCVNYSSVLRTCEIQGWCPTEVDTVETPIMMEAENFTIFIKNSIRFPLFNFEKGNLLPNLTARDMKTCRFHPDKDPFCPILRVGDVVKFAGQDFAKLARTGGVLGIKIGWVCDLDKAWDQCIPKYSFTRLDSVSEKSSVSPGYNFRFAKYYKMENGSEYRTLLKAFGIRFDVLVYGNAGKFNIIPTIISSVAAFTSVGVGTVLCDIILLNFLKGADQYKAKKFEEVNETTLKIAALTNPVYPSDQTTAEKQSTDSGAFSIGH

The experiment has as its target human P2X3 receptor (Homo sapiens (Human), UniProt P56373). The experiment in a line: P2X3 receptor inhibition, ATP-evoked Fluo-3 fluorescence (FDSS 3000). It is filed as cell-based. Particulars: C6BU-1 cell transfected with human P2X3 receptor gene.
Broadly, the pIC50 is −log10 of the IC50, conventionally taken in molar units. A low value points to a high IC50. Turning to `CCOc1ccc(Nc2nc(=O)n(CCCO)c(=O)n2Cc2ccc(Cl)cc2)cc1` [I-361], the pIC50 was 7.12. As for `Cc1ccc(Cn2c(=O)n(CC(C)(C)C(=O)O)c(=O)[nH]/c2=N\c2ccc(OC(C)C)c(Cl)c2)cc1` [I-408], the figure is 8.00; as for `CC(C)Oc1ccc(/N=c2\[nH]c(=O)n(CCC(C)(C)C(=O)O)c(=O)n2Cc2ccc(Cl)cc2)cc1F` [I-420], 7.28; as for `Cc1ccc(Cn2c(=O)n(CC(C)(C)C(=O)O)c(=O)[nH]/c2=N\c2ccc(OC(C)C)c(F)c2)cc1F` [I-413], 7.00. The compound `COC(=O)[C@H](C)Cn1c(=O)[nH]/c(=N\c2ccc(OC(C)C)c(F)c2)n(Cc2ccc(Cl)cc2)c1=O` [I-452] had a pIC50 of 8.52. For `CC(C)Oc1ccc(/N=c2\[nH]c(=O)n(CC(=O)NCC(N)=O)c(=O)n2Cc2ccc(Cl)cc2)cc1Cl` [I-438] the value was 8.30; for `CC(C)Oc1ccc(/N=c2\[nH]c(=O)n(CCC(C)(C)C(=O)OCc3ccccc3)c(=O)n2Cc2ccc(Cl)cc2)cc1F` [I-406], 7.52. `CCOc1ccc(/N=c2\[nH]c(=O)n(CC(C)(C)C(=O)OC)c(=O)n2Cc2ccc(Cl)cc2)cc1Cl` [I-441] gave a pIC50 of 7.96.

`CC(C)Oc1ccc(/N=c2\[nH]c(=O)n(CC(C)(C)C(=O)O)c(=O)n2CC2CCCCCC2)cc1Cl` [I-553] had a negative logarithm of the IC50 (pIC50) of 7.47. `COC(=O)C(C)(C)Cn1c(=O)[nH]/c(=N\c2ccc(CN(C)C)c(Cl)c2)n(Cc2ccc(Cl)cc2)c1=O` [I-490] gave a pIC50 of 7.34. As for `COc1nc(=O)n(Cc2ccc(Cl)cc2)/c(=N/c2ccc(OC(C)C)c(Cl)c2)[nH]1` [I-433], the figure is 6.70; as for `COC(=O)[C@@H](C)Cn1c(=O)[nH]/c(=N\c2ccc(OC(C)C)c(F)c2)n(Cc2ccc(Cl)cc2)c1=O` [I-453], 8.30; as for `CC(C)Oc1ccc(Nc2nc(=O)n(CCO)c(=O)n2Cc2ccc(Cl)cc2)cc1Cl` [I-351], 7.82. For `Cc1cc(/N=c2\[nH]c(=O)n(C[C@H](C)C(=O)O)c(=O)n2CC2CCCCC2)ccc1OC(C)C` [I-559] the value was 7.01.

Compound `CCCSc1ccc(Nc2nc(=O)n(CCO)c(=O)n2Cc2ccc(Cl)cc2)cc1` [I-379] showed a pIC50 of 6.48. For `CC(C)Oc1ccc(Nc2nc(=O)n(CCNC(N)=O)c(=O)n2Cc2ccc(Cl)cc2)cc1F` [I-386], the pIC50 is 7.39. The compound `COc1ccc(Cn2c(=O)nc(Nc3ccc(OC(C)C)c(F)c3)n(Cc3ccc(Cl)cc3)c2=O)cc1` [I-343] gave a pIC50 of 7.68. As for `COC(=O)C(C)(C)Cn1c(=O)[nH]/c(=N\c2cccc(C(F)(F)F)c2)n(Cc2ccc(Cl)cc2)c1=O` [I-471], the figure is 7.62. `COC(=O)C(C)(C)Cn1c(=O)[nH]/c(=N\c2cccc(Cl)c2)n(Cc2ccc(Cl)cc2)c1=O` [I-466]: the negative-log IC50 (pIC50) is 7.43. For `Cc1cc2cc(/N=c3\[nH]c(=O)[nH]c(=O)n3Cc3ccc(Cl)cc3)ccc2o1` [I-501] the value was 6.72; for `CC(C)Oc1ccc(Nc2nc(=O)n(CC(C)(CO)CO)c(=O)n2Cc2ccc(Cl)cc2)cc1F` [I-274], 8.05. For `CC(C)Oc1ccc(Nc2nc(=O)n(CCOC3CCCCO3)c(=O)n2Cc2ccc(Cl)cc2)cc1F` (centres unmarked) [I-545] the value was 8.22; for `CC(C)Oc1ccc(/N=c2\[nH]c(=O)n(C[C@H](C)C(=O)O)c(=O)n2Cc2ccc(Cl)cc2)cc1` [I-537], 7.72. Turning to `CC(C)(Cn1c(=O)[nH]/c(=N\c2cccc(C(F)(F)F)c2)n(Cc2ccc(Cl)cc2)c1=O)C(=O)O` [I-476], the pIC50 is 7.46. As to `N#CCOc1ccc(Nc2nc(=O)n(CCO)c(=O)n2Cc2ccc(Cl)cc2)cc1` [I-330], the negative-log IC50 (pIC50) was 6.23. `CC(C)Oc1ccc(Nc2nc(=O)n(CCC(=O)O)c(=O)n2CC2CCCCC2)cc1Cl` [I-382]: the negative logarithm of the IC50 (pIC50) was 7.02. As for `CCOc1ccc(Nc2nc(=O)n(CCO)c(=O)n2Cc2ccc(Cl)cc2)cc1F` [I-312], the pIC50 was 6.98.

In turn, `COC(=O)C(C)(C)Cn1c(=O)[nH]/c(=N\c2cccc(OC(F)(F)F)c2)n(Cc2ccc(Cl)cc2)c1=O` [I-467] had a pIC50 of 7.43. As to `COC(=O)C(C)(C)Cn1c(=O)[nH]/c(=N\c2ccc(OC(C)C)c(F)c2)n(Cc2ccc(Cl)cc2)c1=O` [I-403], the pIC50 is 7.82. For `CC(C)Oc1ccc(/N=c2\n(C)c(=O)n(CCOC3CCCCO3)c(=O)n2Cc2ccc(Cl)cc2)cc1F` (centres unmarked) [I-546], the pIC50 is 6.34. As for `CCOC(=O)CCn1c(=O)nc(Nc2ccc(OC(C)C)c(Cl)c2)n(CC2CCCCC2)c1=O` [I-380], the figure is 7.47; as for `COC(=O)[C@@H](C)Cn1c(=O)[nH]/c(=N\c2ccc(OC(C)C)c(Cl)c2)n(CC2CCCCC2)c1=O` [I-548], 7.92. As for `CC(C)Oc1ccc(/N=c2\[nH]c(=O)n(Cc3cccc(C(=O)O)c3)c(=O)n2Cc2ccc(Cl)cc2)cc1F` [I-451], the figure is 7.80; as for `CC(C)Oc1ccc(/N=c2\[nH]c(=O)n(CC(=O)NCC#N)c(=O)n2Cc2ccc(Cl)cc2)cc1Cl` [I-435], 8.22; as for `CC(C)Oc1ccc(/N=c2\[nH]c(=O)n(CC3(C(=O)O)CC3)c(=O)n2Cc2ccc(Cl)cc2)cc1F` [I-424], 7.31. In turn, `CCOc1ccc(/N=c2\[nH]c(=O)n(C[C@@H](C)C(=O)OC)c(=O)n2Cc2ccc(Cl)cc2)cc1C` [I-481] showed a pIC50 of 7.92. As for `COC(=O)[C@@H](C)Cn1c(=O)[nH]/c(=N\c2ccc(OC(C)C)c(C)c2)n(CC2CCCCC2)c1=O` [I-555], the figure is 7.89; as for `COc1cc(Cl)ccc1Cn1c(Nc2ccc(OC(C)C)c(F)c2)nc(=O)n(C(C)C)c1=O` [I-270], 6.57. For `CC(C)n1c(=O)nc(Nc2cccc(F)c2)n(Cc2ccc(F)cc2)c1=O` [I-182] the value was 6.15; for `COC(=O)CCn1c(=O)[nH]/c(=N\c2ccc(OC(C)C)c(F)c2)n(Cc2ccc(C)cc2)c1=O` [I-409], 7.92. `CC(C)Oc1ccc(Nc2nc(=O)n(CCN(C)C)c(=O)n2Cc2ccc(Cl)cc2)cc1F` [I-272]: the pIC50 was 6.74.

In the case of `CC(C)Oc1ccc(/N=c2\[nH]c(=O)n(CCC(C)(C)C(=O)OCc3ccccc3)c(=O)n2Cc2ccc(Cl)cc2)cc1Cl` [I-407], the pIC50 was 7.57.

The compound `COCCOc1ccc(Nc2nc(=O)n(C(C)C)c(=O)n2Cc2ccc(Cl)cc2)cc1Cl` [I-237] gave a negative-log IC50 (pIC50) of 6.64. `CCOC(=O)c1ccccc1Cn1c(=O)[nH]/c(=N\c2ccc(OC(C)C)c(F)c2)n(Cc2ccc(Cl)cc2)c1=O` [I-454]: the pIC50 was 7.62. Take `CCOC(=O)CCCn1c(=O)[nH]/c(=N\c2ccc(OC(C)C)c(C)c2)n(Cc2ccc(C)cc2)c1=O` [I-521]: the pIC50 is 8.40. For `Cc1ccc(Cn2c(Nc3ccc(OC(C)C)cc3)nc(=O)n(C(C)C)c2=O)cc1F` [I-217] the value was 6.57; for `CC(C)Oc1ccc(Nc2nc(=O)n(Cc3ccccn3)c(=O)n2Cc2ccc(Cl)cc2)cc1F` [I-300], 7.60. As for `CC(C)Oc1ccc(Nc2nc(=O)n(CC(=O)NCCO)c(=O)n2Cc2ccc(Cl)cc2)cc1F` [I-353], the figure is 7.74; as for `CC(C)Oc1ccc(Nc2nc(=O)n(CC(CO)CO)c(=O)n2Cc2ccc(Cl)cc2)cc1F` [I-276], 7.92; as for `CC(C)Oc1ccc(Nc2nc(=O)n(CC(C)(C)CO)c(=O)n2Cc2ccc(Cl)cc2)cc1F` [I-332], 8.10. `CC(C)(Cn1c(=O)[nH]/c(=N\c2ccc3[nH]ccc3c2)n(Cc2ccc(Cl)cc2)c1=O)C(=O)O` [I-478] gave a negative logarithm of the IC50 (pIC50) of 6.20. For `COc1ccc(Nc2nc(=O)n(CCO)c(=O)n2Cc2ccc(Cl)cc2)cc1F` [I-305] the value was 6.02. For `Cc1ccc(/N=c2\[nH]c(=O)n(CC(C)(C)C(=O)O)c(=O)n2Cc2ccc(Cl)cc2)cc1C` [I-464] the value was 6.25; for `Cc1ccc(Cn2c(Nc3cccc(C(F)(F)F)c3)nc(=O)n(C(C)(C)C)c2=O)cc1` [I-097], 6.30. For `CCOc1nc(=O)n(Cc2ccc(Cl)cc2)/c(=N/c2ccc(OC(C)C)c(Cl)c2)[nH]1` [II-014] the value was 6.60.

`CC(C)Oc1ccc(Nc2nc(=O)n(CCO)c(=O)n2Cc2ccc(F)cc2F)cc1F` [I-340] had a pIC50 of 6.47. `CN(C)Cc1ccc(/N=c2\[nH]c(=O)n(CC(C)(C)C(=O)O)c(=O)n2Cc2ccc(Cl)cc2)cc1Cl` [I-495] had a negative logarithm of the IC50 (pIC50) of 6.90.

As for `COC(=O)c1ccc(Nc2nc(=O)n(C(C)C)c(=O)n2Cc2ccc(F)cc2)cc1` [I-221], the pIC50 is 6.56.

On to `CC(C)Oc1ccc(Nc2nc(=O)n(CCNC(=O)N(C)C)c(=O)n2Cc2ccc(Cl)cc2)cc1F` [I-388], for which the negative logarithm of the IC50 (pIC50) was 7.44.

In turn, `CC(C)Oc1ccc(/N=c2\[nH]c(=O)n(CC(C)(C)C(=O)O)c(=O)n2Cc2ccc(Cl)cc2)cc1` [I-541] gave a pIC50 of 7.24. As for `CC(C)Oc1ccc(Nc2nc(=O)n(CCN3CCCCC3)c(=O)n2Cc2ccc(Cl)cc2)cc1F` [I-282], the figure is 7.57.

`COC(=O)C[C@@H](C)n1c(=O)[nH]/c(=N\c2ccc(OC(C)C)c(C)c2)n(Cc2ccc(Cl)cc2)c1=O` [I-557] had a pIC50 of 7.72. For `COC(=O)C(C)(C)Cn1c(=O)[nH]/c(=N\c2ccc(C(=O)C(C)(C)C)cc2)n(Cc2ccc(Cl)cc2)c1=O` [I-402] the value was 6.35; for `O=c1nc(Nc2cccc(OC(F)(F)F)c2)n(Cc2ccc(Cl)cc2)c(=O)n1CCO` [I-309], 6.45. For `CCOc1ccc(/N=c2\[nH]c(=O)n(C[C@H](C)C(=O)O)c(=O)n2Cc2ccc(Cl)cc2)cc1` [I-535] the value was 7.28. For `CC(C)Oc1ccc(Nc2nc(=O)n(CCCN)c(=O)n2Cc2ccc(Cl)cc2)cc1F` [I-317] the value was 6.86; for `CC(C)Cc1ccc(Nc2nc(=O)n(CCO)c(=O)n2Cc2ccc(Cl)cc2)cc1` [I-328], 6.91.

`CCOC(=O)COc1ccc(Nc2nc(=O)n(C(C)C)c(=O)n2Cc2ccc(Cl)cc2)cc1Cl` [I-241] gave a negative-log IC50 (pIC50) of 6.35.

`CCCOc1ccc(Nc2nc(=O)n(CCO)c(=O)n2Cc2ccc(Cl)cc2)cc1F` [I-321]: the negative logarithm of the IC50 (pIC50) was 7.48. Compound `CC(C)Oc1ccc(/N=c2\[nH]c(=O)n([C@@H](C)CC(=O)O)c(=O)n2Cc2ccc(Cl)cc2)cc1F` [I-527] showed a pIC50 of 7.48. The compound `CCOc1ccc(/N=c2\[nH]c(=O)n(C[C@H](C)C(=O)O)c(=O)n2Cc2ccc(Cl)cc2)cc1C` [I-536] gave a pIC50 of 7.34.
